# From patent US8026257B2 (Bristol-Myers Squibb Company, priority 2007, dated 2011)
# Key:
# [1] = background statement, literature reports; cited from earlier work
# hSERT = hSERT (Homo sapiens, UniProt P31645); experiment: SERT radioligand binding assay ([125I]RTI-55, HEK-hSERT membranes); conditions: HEK-293 hSERT membranes, 260 pM [125I]RTI-55, 1 hour at room temperature; read-out: SERT IC50
# In short: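 Crude membranes from HEK-293 cells expressing hSERT (15 ug/ml, 2× stock) were incubated 1 hour at room temperature with [125I]RTI-55 (520 pM, 2× stock; at Kd) in pH 7.5 Tris, 120 mM NaCl, 5 mM KCl. Bound ligand was collected by GF/B filtration and scintillation counted. IC50 came from four-parameter fit, fluoxetine defining 100% inhibition.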
# NK-1 = molecular target: T1, NK-1 (Homo sapiens, UniProt P25103); experiment: NK1 radioligand binding assay ([125I]Substance P, U373 membranes); conditions: U373 cell membranes, 200 pM [125I]Substance P, 1 hour at room temperature
# T1 construct: 30 ul/well of a 2×U373 membrane preparation
# T1 sequence (P25103 whole entry): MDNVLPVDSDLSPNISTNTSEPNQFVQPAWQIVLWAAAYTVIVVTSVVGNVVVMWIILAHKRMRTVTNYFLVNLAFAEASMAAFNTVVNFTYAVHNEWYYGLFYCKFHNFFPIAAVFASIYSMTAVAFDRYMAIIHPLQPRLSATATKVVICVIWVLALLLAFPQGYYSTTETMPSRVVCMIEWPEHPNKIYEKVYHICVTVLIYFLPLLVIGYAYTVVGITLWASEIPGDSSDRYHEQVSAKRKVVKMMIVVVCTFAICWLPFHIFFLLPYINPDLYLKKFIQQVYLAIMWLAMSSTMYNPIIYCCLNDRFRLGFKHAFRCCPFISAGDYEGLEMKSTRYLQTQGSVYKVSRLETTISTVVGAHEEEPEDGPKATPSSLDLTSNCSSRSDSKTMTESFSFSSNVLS
# In short: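 U373 cell membranes incubated 1 h at room temperature with [125I]Substance P at its Kd (added as 400 pM 2× solution) in Tris-Cl pH 7.5 with MgCl2, BSA, bacitracin and protease inhibitors. Bound radioligand collected on PEI-treated GF/B filters and counted. IC50 from four-parameter fit of triplicates; L-733,060 defined 100% inhibition.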
# Chain of hSERT (P31645 whole entry): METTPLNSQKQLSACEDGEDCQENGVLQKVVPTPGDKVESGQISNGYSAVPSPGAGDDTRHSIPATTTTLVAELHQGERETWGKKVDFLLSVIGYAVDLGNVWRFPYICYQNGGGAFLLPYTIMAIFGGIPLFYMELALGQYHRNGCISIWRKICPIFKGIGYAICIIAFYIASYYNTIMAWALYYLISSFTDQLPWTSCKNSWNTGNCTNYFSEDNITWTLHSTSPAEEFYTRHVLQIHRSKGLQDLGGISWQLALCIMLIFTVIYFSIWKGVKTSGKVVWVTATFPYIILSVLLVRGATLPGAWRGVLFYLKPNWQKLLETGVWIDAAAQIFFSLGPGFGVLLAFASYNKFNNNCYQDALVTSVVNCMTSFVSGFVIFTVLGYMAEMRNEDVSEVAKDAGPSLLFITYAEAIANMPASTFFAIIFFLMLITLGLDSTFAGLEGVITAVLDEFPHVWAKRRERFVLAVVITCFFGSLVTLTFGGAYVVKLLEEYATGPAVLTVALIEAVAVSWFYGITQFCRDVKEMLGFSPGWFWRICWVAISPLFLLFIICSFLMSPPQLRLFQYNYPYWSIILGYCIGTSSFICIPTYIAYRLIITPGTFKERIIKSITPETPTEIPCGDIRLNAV
SMILES,antidepressant activity [1],IC50 (hSERT),IC50 (NK-1)
"COc1ccc(OC(F)(F)F)cc1CN[C@H]1CCCN[C@H]1c1ccccc1 [CP-122,721]",Robust antidepressant activity,–,–
"C[C@H](OCC1(c2ccc(F)cc2)CCNCC1)c1cc(Cl)cc2c(Cl)n[nH]c12 [Example 121, (S)-3,5-dichloro-7-(1-((4-(4-fluorophenyl)piperidin-4-yl)methoxy)ethyl)-1h-indazole]",–,0.01 to 100 nM,> 300 nM
"C[C@H](OCC1(c2ccc(F)cc2)CCN(C)CC1)c1cc(Cl)cc2c(Cl)n[nH]c12 [Example 122, (S)-3,5-dichloro-7-(1-((4-(4-fluorophenyl)-1-methylpiperidin-4-yl)methoxy)ethyl)-1h-indazole]",–,0.01 to 100 nM,> 300 nM
"Cc1cn(C)c2c(C(C)OCC3(c4ccc(F)cc4)CCN(C)CC3)cc(C(F)(F)F)cc12 (stereo not drawn) [Example 125, 7-(1-((4-(4-fluorophenyl)-1-methylpiperidin-4-yl)methoxy)ethyl)-1,3-dimethyl-5-(trifluoromethyl)-1H-indole]",–,0.01 to 100 nM,0.01 to 100 nM
CN1CCC(COCc2cc(Br)cc3ncn(CC4CC4)c23)(c2ccccc2)CC1 [Example 132],–,0.01 to 100 nM,0.01 to 100 nM
"CCn1cnc2c([C@@H](C)OCC3(c4ccccc4)CCN(C)CC3)cc(C(F)(F)F)cc21 [Example 138, (R)-1-ethyl-4-(1-((1-methyl-4-phenylpiperidin-4-yl)methoxy)ethyl)-6-(trifluoromethyl)-1H-benzo[d]imidazole]",–,0.01 to 100 nM,0.01 to 100 nM
C[C@@H](O[C@H]1OCCN(Cc2n[nH]c(=O)[nH]2)[C@H]1c1ccc(F)cc1)c1cc(C(F)(F)F)cc(C(F)(F)F)c1 [MK-869],Robust antidepressant activity,–,–
